Test results from patent US12060347B2 (BRISTOL-MYERS SQUIBB COMPANY, priority 2016, dated 2024).

Target: T1, human PAR4 (Homo sapiens, UniProt Q96RI0)
T1 construct: expressed in transfected cells; host or cells: HEK293 PAR4 Clone 1.2A (BMS Arctic ID 383940)
T1 sequence (Q96RI0 18-385): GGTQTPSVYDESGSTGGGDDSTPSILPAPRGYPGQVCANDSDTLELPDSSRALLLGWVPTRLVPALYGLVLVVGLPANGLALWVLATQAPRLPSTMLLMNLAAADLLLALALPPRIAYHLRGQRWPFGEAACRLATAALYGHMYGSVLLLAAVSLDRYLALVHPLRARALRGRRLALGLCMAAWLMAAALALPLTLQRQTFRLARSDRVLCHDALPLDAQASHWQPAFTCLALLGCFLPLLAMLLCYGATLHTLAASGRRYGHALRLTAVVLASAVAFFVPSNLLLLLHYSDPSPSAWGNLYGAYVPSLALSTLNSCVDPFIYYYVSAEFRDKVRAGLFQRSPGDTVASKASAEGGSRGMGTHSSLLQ
Experiment: PAR4 FLIPR assay: antagonism of agonist-peptide-induced calcium mobilization in PAR4-expressing HEK293 cells
Type: cell-based
Conditions: H-Ala-Phe(4-F)-[…]NH2-induced intracellular calcium mobilization, 11-point curves

Row | IC50 [µM] | Structure (SMILES)
1 | 0.0016 | Cc1cc(-c2nc3c(C)cc(OCCNS(=O)(=O)c4ccc(F)cc4)cc3s2)c2ncc(OCF)nc2c1 [Example 34, 4-fluoro-N-(2-((2-(2-(fluoromethoxy)-7-methylquinoxalin-5-yl)-4-methylbenzo[d]thiazol-6-yl)oxy)ethyl)benzenesulfonamide]
2 | 0.054 | COc1cnc2c(-c3nc4c(C)cc(OCc5cnc(-c6ccccc6)[nH]5)cc4s3)cc(C)cc2n1 [Example 35, 2-(2-methoxy-7-methylquinoxalin-5-yl)-4-methyl-6-((2-phenyl-1H-imidazol-5-yl)methoxy)benzo[d]thiazole]
3 | 0.0077 | COc1cnc2c(-c3nc4c(C)cc(OCC(=O)NCc5ccccc5)cc4s3)cc(C)cc2n1 [Example 36, N-benzyl-2-((2-(2-methoxy-7-methylquinoxalin-5-yl)-4-methylbenzo[d]thiazol-6-yl)oxy)acetamide]
4 | 0.022 | COc1cnc2c(-c3cc4cccc(Cl)c4o3)cc(C)cc2n1 [Example 37, 5-(7-chlorobenzofuran-2-yl)-2-methoxy-7-methylquinoxaline]
5 | 0.0021 | COc1cnc2c(-c3cc4cc(OCCOC(=O)Nc5ccnc(C)c5)cc(Cl)c4o3)cc(C)cc2n1 [Example 38, 2-((7-chloro-2-(2-methoxy-7-methylquinoxalin-5-yl)benzofuran-5-yl)oxy)ethyl (2-methylpyridin-4-yl)carbamate]
6 | 0.01 | COc1cnc2c(-c3cc4cc(OCCNS(=O)(=O)c5ccccc5)cc(Cl)c4o3)cc(C)cc2n1 [Example 39, N-(2-((7-chloro-2-(2-methoxy-7-methylquinoxalin-5-yl)benzofuran-5-yl)oxy)ethyl)benzenesulfonamide]
7 | 0.036 | Cc1cc(-c2cc3ccccc3s2)c2ncc(OC(F)F)nc2c1 [Example 40, 5-(benzo[b]thiophen-2-yl)-2-(difluoromethoxy)-7-methylquinoxaline]
8 | 0.4 | COc1cccc2cc(-c3cc(C)cc4nc(OC(F)F)cnc34)oc12 [Example 41, 2-(difluoromethoxy)-5-(7-methoxybenzofuran-2-yl)-7-methylquinoxaline]
9 | 0.0052 | COc1cccc2oc(-c3cc(C)cc4nc(OC(F)F)cnc34)cc12 [Example 42, 2-(difluoromethoxy)-5-(4-methoxybenzofuran-2-yl)-7-methylquinoxaline]
10 | 0.17 | COc1cnc2c(-c3cc4c(OCc5ccccc5)cccc4o3)cc(C)cc2n1 [Example 43, 5-(4-(benzyloxy)benzofuran-2-yl)-2-methoxy-7-methylquinoxaline]
11 | 0.22 | Cc1cc(-c2cc3cc(OCc4ccccc4)ccc3o2)c2ncc(OC(F)F)nc2c1 [Example 44, 5-(5-(benzyloxy)benzofuran-2-yl)-2-(difluoromethoxy)-7-methylquinoxaline]
12 | 0.099 | Cc1cc(-c2cn3ccccc3n2)c2ncc(OC(F)F)nc2c1 [Example 45, 2-(difluoromethoxy)-5-(imidazo[1,2-a]pyridin-2-yl)-7-methylquinoxaline]
13 | 0.017 | COC(=O)NCCOc1ccc2oc(-c3cc(C)cc4nc(OC(F)F)cnc34)cc2c1 [Example 46, methyl 2-(2-(2-(difluoromethoxy)-7-methylquinoxalin-5-yl)benzofuran-5-yloxy)ethylcarbamate]
14 | 0.034 | Cc1cc(-c2nc3ccccc3[nH]2)c2ncc(OC(F)F)nc2c1 [Example 47, 5-(1H-benzo[d]imidazol-2-yl)-2-(difluoromethoxy)-7-methylquinoxaline]
15 | 0.0021 | COc1ccc2nc(-c3cc(C)cc4nc(OC(F)F)cnc34)sc2c1 [Example 48, 2-(2-(difluoromethoxy)-7-methylquinoxalin-5-yl)-6-methoxybenzo[d]thiazole]
16 | 0.0097 | Cc1cc(-c2cc3cc(OCC(=O)OC(C)(C)C)ccc3o2)c2ncc(OC(F)F)nc2c1 [Example 49, tert-butyl 2-(2-(2-(difluoromethoxy)-7-methylquinoxalin-5-yl)benzofuran-5-yloxy) acetate]
17 | 0.092 | COc1ccc2[nH]c(-c3cc(C)cc4nc(OC(F)F)cnc34)nc2c1 [Example 50, 2-(difluoromethoxy)-5-(5-methoxy-1H-benzo[d]imidazol-2-yl)-7-methylquinoxaline]
18 | 0.18 | COc1cccc2sc(-c3cc(C)cc4nc(OC(F)F)cnc34)nc12 [Example 51, 2-(2-(difluoromethoxy)-7-methylquinoxalin-5-yl)-4-methoxybenzo[d]thiazole]
19 | 0.0047 | Cc1cc(-c2nc3c(C)cccc3s2)c2ncc(OC(F)F)nc2c1 [Example 52, 2-(2-(difluoromethoxy)-7-methylquinoxalin-5-yl)-4-methylbenzo[d]thiazole]
20 | 0.0098 | Cc1cc(-c2nc3c(F)cccc3s2)c2ncc(OC(F)F)nc2c1 [Example 53, 2-(2-(difluoromethoxy)-7-methylquinoxalin-5-yl)-4-fluorobenzo[d]thiazole]
21 | 0.094 | CNCCOc1ccc2oc(-c3cc(C)cc4nc(OC(F)F)cnc34)cc2c1 [Example 54, 2-(2-(2-(difluoromethoxy)-7-methylquinoxalin-5-yl)benzofuran-5-yloxy)-N-methylethanamine]
22 | 0.014 | COc1cc(OC)c2nc(-c3cc(C)cc4nc(OC(F)F)cnc34)sc2c1 [Example 55, 2-(2-(difluoromethoxy)-7-methylquinoxalin-5-yl)-4,6-dimethoxybenzo[d]thiazole]
23 | 0.0047 | COc1ccc2oc(-c3cc(C)cc4nc(OC)cnc34)cc2c1 [Example 56, 2-methoxy-5-(5-methoxybenzofuran-2-yl)-7-methylquinoxaline]
24 | 0.003 | COc1cccc2nc(-c3cc(C)cc4nc(OC(F)F)cnc34)sc12 [Example 58, 2-(2-(difluoromethoxy)-7-methylquinoxalin-5-yl)-7-methoxybenzo[d]thiazole]
25 | 0.019 | Cc1cc(-c2nc3cc(F)ccc3s2)c2ncc(OC(F)F)nc2c1 [Example 60, 2-(2-(difluoromethoxy)-7-methylquinoxalin-5-yl)-5-fluorobenzo[d]thiazole]
26 | 0.043 | COC(=O)c1cccc2nc(-c3cc(C)cc4nc(OC(F)F)cnc34)sc12 [Example 61, Methyl 2-(2-(difluoromethoxy)-7-methylquinoxalin-5-yl)benzo[d]thiazole-7-carboxylate]
27 | 0.1 | COC(=O)N1CCc2nc(-c3cc(C)cc4nc(OC(F)F)cnc34)sc2C1 [Example 62, methyl 2-(2-(difluoromethoxy)-7-methylquinoxalin-5-yl)-6,7-dihydrothiazolo[5,4-c]pyridine-5(4H)-carboxylate]
28 | 0.0029 | Cc1cc(-c2nc3ccc(OCCNS(=O)(=O)c4ccccc4)cc3s2)c2ncc(OC(F)F)nc2c1 [Example 63, N-(2-(2-(2-(difluoromethoxy)-7-methylquinoxalin-5-yl)benzo[d]thiazol-6-yloxy)ethyl) benzenesulfonamide]
29 | 0.0074 | Cc1cc(-c2nc3cccc(CO)c3s2)c2ncc(OC(F)F)nc2c1 [Example 64, (2-(2-(difluoromethoxy)-7-methylquinoxalin-5-yl)benzo[d]thiazol-7-yl)methanol]
30 | 0.031 | COCc1cccc2nc(-c3cc(C)cc4nc(OC(F)F)cnc34)sc12 [Example 65, 2-(2-(difluoromethoxy)-7-methylquinoxalin-5-yl)-7-(methoxymethyl)benzo[d]thiazole]
